The term MIC denotes the lowest concentration found to suppress growth.

≈ marks a conversion by molar mass, not a printed value.

20 compounds from ChEMBL document CHEMBL1806420, “Design, synthesis and antimycobacterial evaluation of novel 3-substituted-N-aryl-6,7-dimethoxy-3a,4-dihydro-3H-indeno[1,2-c]pyrazole-2-carboxamide analogues” (Bioorg Med Chem Lett, 2011) can be followed below.

One data set concerns Vero. As to the kind of experiment: Cytotoxicity against african green monkey Vero cells upto 62.5 ug/ml after 72 hrs by MTT assay. Type of data set: cell-based. Conditions: chlorocebus sabaeus.
The subject of data set [1] is Mycobacterium tuberculosis. The data set can be described thus: Antimycobacterial activity against Mycobacterium tuberculosis H37Rv by agar dilution method. Type of data set: functional. In general terms: In agar dilution the substance is mixed into plates at graded concentrations.

As for `COc1cc2c(cc1OC)C1=NN(C(=O)Nc3ccc(F)c(Cl)c3)C(c3ccccc3)C1C2` (configuration not stated), the Activity entry in the data set with Vero is on record as “Non-toxic”. In addition, the MIC in data set [1] is 6.25 µM (≈ 2.91 µg/mL). Compound `COc1ccc(C2C3Cc4cc(OC)c(OC)cc4C3=NN2C(=O)Nc2ccc(F)c(Cl)c2)cc1` (configuration not stated) returned an MIC in data set [1] of more than 6.25 µM. For the compound `COc1cc2c(cc1OC)C1=NN(C(=O)Nc3ccc(F)cc3)C(c3ccncc3)C1C2` (configuration not stated), the Activity result in the data set on Vero is given as “Non-toxic”. In data set [1], the MIC stood at 3.12 µM (≈ 1.35 µg/mL). On to `COc1cc2c(cc1OC)C1=NN(C(=O)Nc3ccc(F)cc3)C(c3ccccc3Cl)C1C2` (configuration not stated), for which the Activity result with Vero is listed as “Non-toxic”. Further, the MIC in data set [1] stood at 6.25 µM (≈ 2.91 µg/mL). On to `COc1cc2c(cc1OC)C1=NN(C(=O)Nc3ccc(F)cc3)C(c3ccc(F)cc3)C1C2` (configuration not stated), for which, in the data set on Vero, the Activity result is “Non-toxic”. The MIC in data set [1] is 0.78 µM (≈ 0.351 µg/mL). Taken in the same sequence, the figures for `COc1ccc(C2C3Cc4cc(OC)c(OC)cc4C3=NN2C(=O)Nc2ccc(F)cc2)cc1OC` (configuration not stated) were “Non-toxic” and more than 10 µM.

In data set [1], `COc1cc2c(cc1OC)C1=NN(C(=O)Nc3ccc(F)cc3)C(c3ccccc3)C1C2` (configuration not stated) yielded an MIC of more than 6.25 µM. Take `COc1ccc(C2C3Cc4cc(OC)c(OC)cc4C3=NN2C(=O)Nc2ccc(F)cc2)cc1` (configuration not stated): in the data set on Vero, the Activity entry was “Non-toxic”. This compound registered an MIC in data set [1] of 10 µM (≈ 4.61 µg/mL). With `COc1cc2c(cc1OC)C1=NN(C(=O)Nc3ccc(Br)cc3)C(c3ccncc3)C1C2` (configuration not stated), the Activity entry in the data set with Vero is “Non-toxic”. In data set [1], this compound gave an MIC of 6.25 µM (≈ 3.08 µg/mL). The compound `COc1cc2c(cc1OC)C1=NN(C(=O)Nc3ccc(Br)cc3)C(c3ccccc3Cl)C1C2` (configuration not stated) had an MIC in data set [1] of more than 6.25 µM.

With `COc1cc2c(cc1OC)C1=NN(C(=O)Nc3ccc(Br)cc3)C(c3ccc(F)cc3)C1C2` (configuration not stated), the Activity result in the data set on Vero is “Non-toxic”. Further, in data set [1], inhibition of growth (MIC) required 3.12 µM (≈ 1.59 µg/mL). For `COc1ccc(C2C3Cc4cc(OC)c(OC)cc4C3=NN2C(=O)Nc2ccc(Br)cc2)cc1OC` (configuration not stated) the same measures were “Non-toxic” and more than 10 µM.

In data set [1], `COc1cc2c(cc1OC)C1=NN(C(=O)Nc3ccc(Br)cc3)C(c3ccccc3)C1C2` (configuration not stated) displayed an MIC of more than 6.25 µM.

As to `COc1ccc(C2C3Cc4cc(OC)c(OC)cc4C3=NN2C(=O)Nc2ccc(Br)cc2)cc1` (configuration not stated), in the data set on Vero, the Activity entry is reported as “Non-toxic”. Further, in data set [1], the minimum inhibitory concentration (MIC) was more than 10 µM. In turn, `COc1cc2c(cc1OC)C1=NN(C(=O)Nc3ccc(F)c(Cl)c3)C(c3ccncc3)C1C2` (configuration not stated) gave an MIC in data set [1] of more than 6.25 µM. With `COc1cc2c(cc1OC)C1=NN(C(=O)Nc3ccc(F)c(Cl)c3)C(c3ccccc3Cl)C1C2` (configuration not stated), in the data set on Vero, the Activity entry is listed as “Non-toxic”. In data set [1], this compound gave an MIC of 6.25 µM (≈ 3.13 µg/mL). Taken in the same sequence, the figures for `COc1cc2c(cc1OC)C1=NN(C(=O)Nc3ccc(F)c(Cl)c3)C(c3ccc(F)cc3)C1C2` (configuration not stated) were “Non-toxic” and 0.78 µM (≈ 0.377 µg/mL). `COc1ccc(C2C3Cc4cc(OC)c(OC)cc4C3=NN2C(=O)Nc2ccc(F)c(Cl)c2)cc1OC` (configuration not stated): the MIC in data set [1] was more than 6.25 µM. For `NNC(=O)c1ccncc1` [ISONIAZID], in data set [1], the MIC is 0.78 µM (≈ 0.107 µg/mL). Same read-out and setting: the result for `CO[C@H]1/C=C/O[C@@]2(C)Oc3c(C)c(O)c4c(O)c(c(/C=N/N5CCN(C)CC5)c(O)c4c3C2=O)NC(=O)/C(C)=C\C=C\[C@H](C)[C@H](O)[C@@H](C)[C@@H](O)[C@@H](C)[C@H](OC(C)=O)[C@@H]1C` [RIFAMPIN] reads 0.006 µM (≈ 0.00494 µg/mL).
